According to PubChem BioAssay AID1918991 (Molecular Pharmacology Branch, DTP, NCI, 2023):
pIC50: −log10 of the molar value.

Test system: 186277-243-T-J2-PDC complex spheroid growth
Test: Anticancer human tumor 186277-243-T-J2-PDC patient-derived colon adenocarcinoma cell line growth inhibition [AhR]
Conditions: for pIC50: curve of first compound; for viability, T/C: stronger effect = lower value
Method in brief: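 Agents were dosed in half-log steps down from roughly clinical Cmax, or from 10 microM where Cmax was unknown, alone and with AhR antagonists. Read-out: percent test/control growth of tumor spheroids containing HUVEC and MSC stromal cells.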

[1] = second compound 0.1 µM, first compound 0.00316 µM
[2] = second compound 0.1 µM, first compound 0.01 µM
[3] = second compound 0.1 µM, first compound 0.0316 µM
[4] = second compound 0.1 µM, first compound 0.1 µM
[5] = second compound 0.316 µM, first compound 0.00316 µM
[6] = second compound 0.316 µM, first compound 0.01 µM
[7] = second compound 0.316 µM, first compound 0.0316 µM
[8] = second compound 0.316 µM, first compound 0.1 µM
[9] = second compound 1 µM, first compound 0.00316 µM
[10] = second compound 1 µM, first compound 0.01 µM
[11] = second compound 1 µM, first compound 0.0316 µM
[12] = second compound 1 µM, first compound 0.1 µM
[13] = second compound 3.16 µM, first compound 0.00316 µM
[14] = second compound 3.16 µM, first compound 0.01 µM
[15] = second compound 3.16 µM, first compound 0.0316 µM
[16] = second compound 3.16 µM, first compound 0.1 µM
[17] = second compound 10 µM, first compound 0.00316 µM
[18] = second compound 10 µM, first compound 0.01 µM
[19] = second compound 10 µM, first compound 0.0316 µM
[20] = second compound 10 µM, first compound 0.1 µM
[21] = second compound 0.1 µM, first compound 0.316 µM
[22] = second compound 0.1 µM, first compound 1 µM
[23] = second compound 0.1 µM, first compound 3.16 µM
[24] = second compound 0.1 µM, first compound 10 µM
[25] = second compound 0.316 µM, first compound 0.316 µM
[26] = second compound 0.316 µM, first compound 1 µM
[27] = second compound 0.316 µM, first compound 3.16 µM
[28] = second compound 0.316 µM, first compound 10 µM
[29] = second compound 1 µM, first compound 0.316 µM
[30] = second compound 1 µM, first compound 1 µM
[31] = second compound 1 µM, first compound 3.16 µM
[32] = second compound 1 µM, first compound 10 µM
[33] = second compound 3.16 µM, first compound 0.316 µM
[34] = second compound 3.16 µM, first compound 1 µM
[35] = second compound 3.16 µM, first compound 3.16 µM
[36] = second compound 3.16 µM, first compound 10 µM
[37] = second compound 10 µM, first compound 0.316 µM
[38] = second compound 10 µM, first compound 1 µM
[39] = second compound 10 µM, first compound 3.16 µM
[40] = second compound 10 µM, first compound 10 µM
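Also: spheroids exposed to compounds for seven days before the viability read.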
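For viability, T/C in this document: luminescent signal used as a stand-in for viable cell amount; 100% = DMSO vehicle control wells.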

Row | SMILES | pIC50 (second compound 0.1 µM) | pIC50 (second compound 0.316 µM) | pIC50 (second compound 1 µM) | pIC50 (second compound 3.16 µM) | pIC50 (second compound 10 µM) | viability, T/C [3] [%] | viability, T/C [4] [%] | viability, T/C [7] [%] | viability, T/C [8] [%] | viability, T/C [11] [%] | viability, T/C [12] [%] | viability, T/C [15] [%] | viability, T/C [16] [%] | viability, T/C [19] [%] | viability, T/C [20] [%] | viability, T/C [21] [%] | viability, T/C [22] [%] | viability, T/C [25] [%] | viability, T/C [26] [%] | viability, T/C [29] [%] | further results
1 | CC[C@@]1(O)C(=O)OCc2c1cc1n(c2=O)Cc2cc3c(CN(C)C)c(O)ccc3nc2-1 + Cc1cncc(-c2nc(NCCc3c[nH]c4ccccc34)c3ncn(C(C)C)c3n2)c1 | < 7.00 | < 7.00 | < 7.00 | < 7.00 | 8.88 | 92.6 | 62 | 86.2 | 64.8 | 85.2 | 69.4 | 87.4 | 68.9 | 31 | 39 |  |  |  |  |  | viability, T/C (second compound 0.1 µM, first compound 0.000316 µM): 98.8%; viability, T/C (second compound 0.1 µM, first compound 0.001 µM): 96.3%; viability, T/C [1]: 118%; viability, T/C [2]: 112%; viability, T/C (second compound 0.316 µM, first compound 0.000316 µM): 107%; viability, T/C (second compound 0.316 µM, first compound 0.001 µM): 101%; viability, T/C [5]: 104%; viability, T/C [6]: 135%; viability, T/C (second compound 1 µM, first compound 0.000316 µM): 99.6%; viability, T/C (second compound 1 µM, first compound 0.001 µM): 108%; viability, T/C [9]: 125%; viability, T/C [10]: 140%; viability, T/C (second compound 3.16 µM, first compound 0.000316 µM): 118%; viability, T/C (second compound 3.16 µM, first compound 0.001 µM): 109%; viability, T/C [13]: 145%; viability, T/C [14]: 135%; viability, T/C (second compound 10 µM, first compound 0.000316 µM): 49.5%; viability, T/C (second compound 10 µM, first compound 0.001 µM): 57.9%; viability, T/C [17]: 38.7%; viability, T/C [18]: 28.6%
2 | COc1cc(C2c3cc4c(cc3C(OC3OC5COC(C)OC5C(O)C3O)C3COC(=O)C23)OCO4)cc(OC)c1O (stereo not given) + Cc1cncc(-c2nc(NCCc3c[nH]c4ccccc34)c3ncn(C(C)C)c3n2)c1 | 5.67 | 5.84 | 5.80 | 5.84 | 7.31 | 119 | 111 | 119 | 124 | 110 | 149 | 127 | 147 | 55 | 44.5 | 113 | 58.7 | 107 | 53.4 | 99.8 | viability, T/C [23]: 52%; viability, T/C [24]: 21.9%; viability, T/C [27]: 48%; viability, T/C [28]: 21.1%; viability, T/C [30]: 59.5%; viability, T/C [31]: 44.6%; viability, T/C [32]: 19.9%; viability, T/C [33]: 89.3%; viability, T/C [34]: 59.4%; viability, T/C [35]: 42.7%; viability, T/C [36]: 19.9%; viability, T/C [37]: 20.8%; viability, T/C [38]: 24.3%; viability, T/C [39]: 22.9%; viability, T/C [40]: 9.36%
3 | COc1cccc2c1C(=O)c1c(O)c3c(c(O)c1C2=O)CC(O)(C(=O)CO)CC3OC1CC(N)C(O)C(C)O1 (stereo not given) + Cc1cncc(-c2nc(NCCc3c[nH]c4ccccc34)c3ncn(C(C)C)c3n2)c1 | 6.70 | 6.77 | 6.79 | 6.90 | > 7.50 | 107 | 78.6 | 110 | 70.4 | 93.2 | 71.3 | 83.5 | 59.9 | 21.9 | 18.5 | 32.6 | 0.46 | 28.2 | 0.27 | 21.2 | viability, T/C [23]: 0.03%; viability, T/C [24]: 0.25%; viability, T/C [27]: 0.04%; viability, T/C [28]: 0.22%; viability, T/C [30]: 0.08%; viability, T/C [31]: 0.32%; viability, T/C [32]: 0.26%; viability, T/C [33]: 10.8%; viability, T/C [34]: 0.05%; viability, T/C [35]: 0.21%; viability, T/C [36]: 0.79%; viability, T/C [37]: 3.26%; viability, T/C [38]: 0.12%; viability, T/C [39]: 0.49%; viability, T/C [40]: 0.31%
4 | Nc1ncn(C2CC(O)C(CO)O2)c(=O)n1 (stereo not given) + Cc1cncc(-c2nc(NCCc3c[nH]c4ccccc34)c3ncn(C(C)C)c3n2)c1 | < 6.00 | < 6.00 | < 6.00 | < 6.00 | < 6.00 | 91.4 | 119 | 107 | 113 | 99.9 | 126 | 111 | 118 | 56.7 | 46.6 | 147 | 143 | 137 | 150 | 156 | viability, T/C [1]: 116%; viability, T/C [2]: 86.8%; viability, T/C [5]: 120%; viability, T/C [6]: 93.6%; viability, T/C [9]: 98.5%; viability, T/C [10]: 104%; viability, T/C [30]: 157%; viability, T/C [13]: 114%; viability, T/C [14]: 113%; viability, T/C [33]: 120%; viability, T/C [34]: 165%; viability, T/C [17]: 59.8%; viability, T/C [18]: 65.1%; viability, T/C [37]: 52.6%; viability, T/C [38]: 68.6%
